Here are results for 17 compounds from patent US12564638B2 (SHANGHAITECH UNIVERSITY, priority 2019, dated 2026).

Where two headings read alike, the source gives them in different places.

For assay [1], the system named is HCC827 cells (EGFR Exon19 del, non-small cell lung cancer cells). Kind of assay: Cell viability assay (WST/CCK8), HCC827 cells. It counts as cell-based. The following applies: Homo sapiens, HCC827, 72 h, HCC827 (Exon19 Del), 72 hours, read-out: IC50 (half inhibitory concentration). Put shortly:
(§1)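 Cells seeded at 3 000/well in RPMI1640 complete medium, dosed next day with compounds (top 10 μM, 3-fold, 10 points) for 72 h. Viability read with WST (CCK8) reagent; DMSO as negative control, EGFR TKIs as positive controls; IC50 determined.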

Assay [2] relates to PC9 cells (EGFR Exon 19 del, non-small cell lung cancer cells). Kind of assay: Cell viability assay (WST/CCK8), PC9 cells. It counts as cell-based. The following applies: Homo sapiens, PC-9, PC9 (Exon19 Del), 72 hours, read-out: IC50 (half inhibitory concentration). Put shortly:
as §1

As to `COc1cc2ncnc(Nc3ccc(F)c(Cl)c3)c2cc1NC(=O)/C=C/CN1CCN(C(=O)CCSc2cccc3c2C(=O)N(C2CCC(=O)NC2=O)C3=O)CC1` (stereo not shown) [SIAIS249035, (E)-N-(4-((3-chloro-4-fluorophenyl)amino)-7-methoxyquinazolin-6-yl)-4-(4-(3-((2-(2,6-dioxopiperidin-3-yl)-1,3-dioxoisoindolin-4-yl)thio)propanoyl)piperazin-1-yl)but-2-enamide], the IC50 in assay [1] (WST (CCK8)) was found to be 10 nM; in assay [2] (WST (CCK8)), 56.5 nM.

As to `COc1cc2ncnc(Nc3ccc(F)c(Cl)c3)c2cc1NC(=O)/C=C/CN1CCN(C(=O)CCNc2cccc3c2C(=O)N(C2CCC(=O)NC2=O)C3=O)CC1` (stereo not shown) [SIAIS262016, (E)-N-(4-((3-chloro-4-fluorophenyl)amino)-7-methoxyquinazolin-6-yl)-4-(4-(3-((2-(2,6-dioxopiperidin-3-yl)-1,3-dioxoisoindolin-4-yl)amino)propanoyl)piperazin-1-yl)but-2-enamide], the IC50 amounted to 4.5 nM in assay [1] (WST (CCK8)) and 112 nM in assay [2] (WST (CCK8)).

For `COc1cc2ncnc(Nc3ccc(F)c(Cl)c3)c2cc1NC(=O)/C=C/CN1CCC(N2CCN(CCCC#Cc3cccc4c3CN(C3CCC(=O)NC3=O)C4=O)CC2)CC1` (stereo not shown) [SIAIS262050, (E)-N-(4-((3-chloro-4-fluorophenyl)amino)-7-methoxyquinazolin-6-yl)-4-(4-(4-(5-(2-(2,6-dioxopiperidin-3-yl)-1-oxoisoindolin-4-yl)pent-4-yn-1-yl)piperazin-1-yl)piperidin-1-yl)but-2-enamide], the IC50 turned out to be 0.8 nM in assay [1] (WST (CCK8)) and 9.9 nM in assay [2] (WST (CCK8)).

As for `COc1cc2ncnc(Nc3ccc(F)c(Cl)c3)c2cc1NC(=O)/C=C/CN1CCN(C(=O)COCCOCCOCCSc2cccc3c2C(=O)N(C2CCC(=O)NC2=O)C3=O)CC1` (stereo not shown) [SIAIS262006, (E)-N-(4-((3-chloro-4-fluorophenyl)amino)-7-methoxyquinazolin-6-yl)-4-(4-(2-(2-(2-(2-((2-(2,6-dioxopiperidin-3-yl)-1,3-dioxoisoindolin-4-yl)thio)ethoxy)ethoxy)ethoxy)acetyl)piperazin-1-yl)but-2-enamide], the results for the IC50 in assay [1] (WST (CCK8)) and in assay [2] (WST (CCK8)) were 35.5 nM and 73 nM, respectively.

In the case of `COc1cc2ncnc(Nc3ccc(F)c(Cl)c3)c2cc1NC(=O)/C=C/CN1CCN(C(=O)CCCCCNc2cccc3c2CN(C2CCC(=O)NC2=O)C3=O)CC1` (stereo not shown) [SIAIS249059, (E)-N-(4-((3-chloro-4-fluorophenyl)amino)-7-methoxyquinazolin-6-yl)-4-(4-(6-((2-(2,6-dioxopiperidin-3-yl)-1-oxoisoindolin-4-yl)amino)hexanoyl)piperazin-1-yl)but-2-enamide], the IC50 worked out at 11.1 nM in assay [1] (WST (CCK8)) and 1.2 nM in assay [2] (WST (CCK8)).

With `COc1cc2ncnc(Nc3ccc(F)c(Cl)c3)c2cc1NC(=O)/C=C/CN1CCN(C(=O)CCOCCOCCNc2cccc3c2C(=O)N(C2CCC(=O)NC2=O)C3=O)CC1` (stereo not shown) [SIAIS262013, (E)-N-(4-((3-chloro-4-fluorophenyl)amino)-7-methoxyquinazolin-6-yl)-4-(4-(3-(2-(2-((2-(2,6-dioxopiperidin-3-yl)-1,3-dioxoisoindolin-4-yl)amino)ethoxy)ethoxy)propanoyl)piperazin-1-yl)but-2-enamide], the IC50 is 35.8 nM in assay [1] (WST (CCK8)) and 28 nM in assay [2] (WST (CCK8)).

Consider `COc1cc2ncnc(Nc3ccc(F)c(Cl)c3)c2cc1NC(=O)/C=C/CN1CCN(C(=O)CCCCSc2cccc3c2CN(C2CCC(=O)NC2=O)C3=O)CC1` (stereo not shown) [SIAIS219188, (E)-N-(4-((3-chloro-4-fluorophenyl)amino)-7-methoxyquinazolin-6-yl)-4-(4-(5-((2-(2,6-dioxopiperidin-3-yl)-1-oxoisoindolin-4-yl)thio)pentanoyl)piperazin-1-yl)but-2-enamide], for which the IC50 in assay [1] (WST (CCK8)) amounted to 3.1 nM; in assay [2] (WST (CCK8)), 25.1 nM.

Turning to `COc1cc2ncnc(Nc3ccc(F)c(Cl)c3)c2cc1NC(=O)/C=C/CN1CCN(C(=O)CCCCCCC(=O)N[C@H](C(=O)N2C[C@H](O)C[C@H]2C(=O)NCc2ccc(-c3scnc3C)cc2)C(C)(C)C)CC1` [SIAIS249043, (2S,4R)-1-((S)-2-(8-(4-((E)-4-((4-((3-chloro-4-fluorophenyl)amino)-7-methoxyquinazolin-6-yl)amino)-4-oxobut-2-en-1-yl)piperazin-1-yl)-8-oxooctanamido)-3,3-dimethylbutanoyl)-4-hydroxy-N-(4-(4-methylthiazol-5-yl)benzyl)pyrrolidine-2-carboxamide], the IC50 in assay [1] (WST (CCK8)) worked out at 19.3 nM; in assay [2] (WST (CCK8)), 70.6 nM.

Consider `COc1cc2ncnc(Nc3ccc(F)c(Cl)c3)c2cc1OCCCN1CCN(C(=O)COCCSc2cccc3c2C(=O)N(C2CCC(=O)NC2=O)C3=O)CC1` (stereo not shown) [SIAIS184168, 4-((2-(2-(4-(3-((4-((3-chloro-4-fluorophenyl)amino)-7-methoxyquinazolin-6-yl)oxy)propyl)piperazin-1-yl)-2-oxoethoxy)ethyl)thio)-2-(2,6-dioxopiperidin-3-yl)isoindoline-1,3-dione], for which the IC50 in assay [1] (Table 4, gefitinib and sapitinib-based compounds, WST) is 43 nM; in assay [2] (Table 4, gefitinib-based compounds, WST) it was 317 nM.

Regarding `COc1cc2ncnc(Nc3ccc(F)c(Cl)c3)c2cc1NC(=O)/C=C/CN1CCC(N2CCN(C(=O)CCCCCCOc3cccc4c3CN(C3CCC(=O)NC3=O)C4=O)CC2)CC1` (stereo not shown) [SIAIS337028, (E)-N-(4-((3-chloro-4-fluorophenyl)amino)-7-methoxyquinazolin-6-yl)-4-(4-(4-(7-((2-(2,6-dioxopiperidin-3-yl)-1-oxoisoindolin-4-yl)oxy)heptanoyl)piperazin-1-yl)piperidin-1-yl)but-2-enamide], the IC50 was 0.9 nM in assay [1] (WST (CCK8)) and 20.3 nM in assay [2] (WST (CCK8)).

Turning to `COc1cc2ncnc(Nc3ccc(F)c(Cl)c3)c2cc1NC(=O)/C=C/CN1CCN(C(=O)CCCCCSc2cccc3c2C(=O)N(C2CCC(=O)NC2=O)C3=O)CC1` (stereo not shown) [SIAIS249038, (E)-N-(4-((3-chloro-4-fluorophenyl)amino)-7-methoxyquinazolin-6-yl)-4-(4-(6-((2-(2,6-dioxopiperidin-3-yl)-1,3-dioxoisoindolin-4-yl)thio)hexanoyl)piperazin-1-yl)but-2-enamide], the values for the IC50 in assay [1] (WST (CCK8)) and in assay [2] (WST (CCK8)) were 4.7 nM and 22.9 nM, respectively.

In the case of `COc1cc2ncnc(Nc3ccc(F)c(Cl)c3)c2cc1NC(=O)/C=C/CN1CCC(N2CCN(CCCCCCSc3cccc4c3CN(C3CCC(=O)NC3=O)C4=O)CC2)CC1` (stereo not shown) [SIAIS262065, (E)-N-(4-((3-chloro-4-fluorophenyl)amino)-7-methoxyquinazolin-6-yl)-4-(4-(4-(6-((2-(2,6-dioxopiperidin-3-yl)-1-oxoisoindolin-4-yl)thio)hexyl)piperazin-1-yl)piperidin-1-yl)but-2-enamide], the IC50 in assay [1] (WST (CCK8)) is 3.1 nM; in assay [2] (WST (CCK8)), 185 nM.

For `COc1cc2ncnc(Nc3ccc(F)c(Cl)c3)c2cc1NC(=O)/C=C/CN1CCN(C(=O)COCCOCCSc2cccc3c2C(=O)N(C2CCC(=O)NC2=O)C3=O)CC1` (stereo not shown) [SIAIS262005, (E)-N-(4-((3-chloro-4-fluorophenyl)amino)-7-methoxyquinazolin-6-yl)-4-(4-(2-(2-(2-((2-(2,6-dioxopiperidin-3-yl)-1,3-dioxoisoindolin-4-yl)thio)ethoxy)ethoxy)acetyl)piperazin-1-yl)but-2-enamide], the IC50 turned out to be 66.9 nM in assay [1] (WST (CCK8)) and 84 nM in assay [2] (WST (CCK8)).

For `COc1cc2ncnc(Nc3ccc(F)c(Cl)c3)c2cc1NC(=O)/C=C/CN1CCN(C(=O)CCCCNc2cccc3c2CN(C2CCC(=O)NC2=O)C3=O)CC1` (stereo not shown) [SIAIS249058, (E)-N-(4-((3-chloro-4-fluorophenyl)amino)-7-methoxyquinazolin-6-yl)-4-(4-(5-((2-(2,6-dioxopiperidin-3-yl)-1-oxoisoindolin-4-yl)amino)pentanoyl)piperazin-1-yl)but-2-enamide], the IC50 in assay [1] (WST (CCK8)) amounted to 5.5 nM; in assay [2] (WST (CCK8)), 9.9 nM.

Take `COc1cc2ncnc(Nc3ccc(F)c(Cl)c3)c2cc1NC(=O)/C=C/CN1CCN(C(=O)CCOCCOCCC(=O)N[C@H](C(=O)N2C[C@H](O)C[C@H]2C(=O)NCc2ccc(-c3scnc3C)cc2)C(C)(C)C)CC1` [SIAIS249045, (2S,4R)-1-((S)-2-(3-(2-(3-(4-((E)-4-((4-((3-chloro-4-fluorophenyl)amino)-7-methoxyquinazolin-6-yl)amino)-4-oxobut-2-en-1-yl)piperazin-1-yl)-3-oxopropoxy)ethoxy)propanamido)-3,3-dimethylbutanoyl)-4-hydroxy-N-(4-(4-methylthiazol-5-yl)benzyl)pyrrolidine-2-carboxamide]: the IC50 was determined as 41.9 nM in assay [1] (WST (CCK8)) and 691 nM in assay [2] (WST (CCK8)).

`COc1cc2ncnc(Nc3ccc(F)c(Cl)c3)c2cc1NC(=O)/C=C/CN1CCN(C(=O)CCCCCCNc2cccc3c2CN(C2CCC(=O)NC2=O)C3=O)CC1` (stereo not shown) [SIAIS249060, (E)-N-(4-((3-chloro-4-fluorophenyl)amino)-7-methoxyquinazolin-6-yl)-4-(4-(7-((2-(2,6-dioxopiperidin-3-yl)-1-oxoisoindolin-4-yl)amino)heptanoyl)piperazin-1-yl)but-2-enamide]: the IC50 stood at 11.5 nM in assay [1] (WST (CCK8)) and 16 nM in assay [2] (WST (CCK8)).

`COc1cc2ncnc(Nc3ccc(F)c(Cl)c3)c2cc1NC(=O)/C=C/CN1CCN(C(=O)COCCOCCOCCSc2cccc3c2CN(C2CCC(=O)NC2=O)C3=O)CC1` (stereo not shown) [SIAIS262002, (E)-N-(4-((3-chloro-4-fluorophenyl)amino)-7-methoxyquinazolin-6-yl)-4-(4-(2-(2-(2-(2-((2-(2,6-dioxopiperidin-3-yl)-1-oxoisoindolin-4-yl)thio)ethoxy)ethoxy)ethoxy)acetyl)piperazin-1-yl)but-2-enamide]: the IC50 in assay [1] (WST (CCK8)) amounted to 26.1 nM; in assay [2] (WST (CCK8)), 78 nM.
